The results in this text go back to BindingDB's records for doi:10.1016/j.bmcl.2004.05.021 (University of Alberta, 2004).

The target of this experiment is Genome polyprotein 3C proteinase (Hepatitis A virus). In words: Reversible inhibitory activity against Protease.
`CC(=O)N[C@@H](CC(C)C)C(=O)N[C@@H](C)C(=O)N[C@@H](C)C(=O)N[C@@H](C[C@@H]1CCNC1=O)C(=O)Cn1[nH]c(=O)c2c(F)c(F)c(F)c(F)c2c1=O` [(S)-2-Acetylamino-4-methyl-pentanoic acid ((S)-1-{1-[(S)-2-oxo-1-((1S,4S)-2-oxo-pyrrolidin-3-ylmethyl)-3-(5,6,7,8-tetrafluoro-1,4-dioxo-3,4-dihydro-1H-phthalazin-2-yl)-propylcarbamoyl]-ethylcarbamoyl}-ethyl)-amide] yielded an IC50 of 2000 nM.

In turn, `CC(=O)N[C@@H](CC(C)C)C(=O)N[C@@H](C)C(=O)N[C@@H](C)C(=O)N[C@@H](C[C@@H]1CCNC1=O)C(=O)Cn1[nH]c(=O)c2c([N+](=O)[O-])cccc2c1=O` [(S)-2-Acetylamino-4-methyl-pentanoic acid ((S)-1-{1-[(S)-3-(5-nitro-1,4-dioxo-3,4-dihydro-1H-phthalazin-2-yl)-2-oxo-1-((1S,4S)-2-oxo-pyrrolidin-3-ylmethyl)-propylcarbamoyl]-ethylcarbamoyl}-ethyl)-amide] registered a concentration for half-maximal inhibition (IC50) of 1600 nM.

As to `CC(=O)N[C@@H](CC(C)C)C(=O)N[C@@H](C)C(=O)N[C@@H](C)C(=O)N[C@@H](CCC(=O)N(C)C)C(=O)Cn1[nH]c(=O)c2ccccc2c1=O` [(S)-4-{(S)-2-[(S)-2-((S)-2-Acetylamino-4-methyl-pentanoylamino)-propionylamino]-propionylamino}-6-(1,4-dioxo-3,4-dihydro-1H-phthalazin-2-yl)-5-oxo-hexanoic acid dimethylamide], the IC50 is 13000 nM.
